# Like-named read-outs stand apart in the source and are kept apart here.
# Legend:
# [1] = acute toxicity; ref Yi et al. [2013]; cited from earlier work
# [2] = system: Helicobacter pylori; set-up: method as in Li et al. [2018]; settings: antibacterial study and urease activity in vivo; ref Li et al. [2018]; cited from earlier work
# [3] = system: UreG; assay: Circular dichroism spectroscopy of UreG secondary structure; set-up: species or system rumen microorganisms of dairy cows; settings: 233 μg/mL UreG, 88 μM alkaloid
# Experimental: The CD spectra of UreG were recorded using Chirascan Plus spectrometer (Applied Photophysics Ltd., Surrey, UK) equipped with a 1-mm quartz cell, at measurement range between 190 and 260 nm, with 1 nm data pitch and bandwidth. To reduce interference from the background solution, 233 µg/mL UreG and 88 µM alkaloid were prepared using distilled water. The final CD spectrum of UreG was obtained by subtracting the background spectrum (distilled water or alkaloid) from the sample spectrum. The secondary structure proportions (α-helix, β-sheet, β-turn, and random coil) in UreG were calculated using CDNN (v.2.1) software (Applied Photophysics Ltd., Leatherhead, UK).
# [4] = target: (UniProt A0A6M3RDS9); assay: UreG GTPase activity (Malachite Green Phosphate Assay); format: biochemical, rumen microorganisms of dairy cows; settings: alkaloid 0, 6.25, 12.5, 25, 50 and 100 μM; triplicate; read-out: IC50 against UreG GTPase activity
# [5] = system: UreG; settings: from trend of Km and Vmax with alkaloid concentration
# Experimental: The kinetics assay of UreG by alkaloid was carried out by Michaelis–Menten equation, and the values of Michaelis–Menten constants (Km and Vmax) were calculated from the Lineweaver–Burk plots through the software of GraphPad Prism. The inhibition with various concentrations of alkaloids (0, 15.6, 62.5, and 250 µM) was measured at different concentrations of GTP substrate (0, 12.5, 25, 50, 100, and 200 µM).
# [6] = target: UreG; assay: Isothermal titration calorimetry of nickel binding to UreG in presence of alkaloid; set-up: species or system rumen microorganisms of dairy cows; settings: for Effect on KD value between nickel and UreG / Effect on N value (nickel: UreG): 27 μM UreG, 1500 μM NiSO4, 238 μM alkaloid
# Experimental: The inhibition mechanism of UreG by alkaloid was explored using ITC and CD spectroscopy, to reveal the effects of alkaloid on the combination of nickel towards UreG and the secondary structure of UreG. ITC measurements were carried out with an AutoITC200 microcalorimeter (GE, MA, USA) as described previously (Zhang et al. [2020a]). Briefly, 27 µM UreG was titrated with 1500 µM NiSO4 in the present of 238 µM alkaloid. The titration curve was fitted with the one-site binding model, and the final data was analyzed by ITC Analysis Module in the software of Origin 7.0 (OriginLab, MA, USA).
# [7] = target: UreG; assay: UreG GTPase activity (Malachite Green Phosphate Assay); format: biochemical, rumen microorganisms of dairy cows; settings: for IC50: alkaloid 0, 6.25, 12.5, 25, 50 and 100 μM, triplicate, read-out: IC50 against UreG GTPase activity
# [8] = rat, in vivo, po; cited from earlier work
# [9] = system: urease; set-up: method as in Tan et al. [2017]; settings: ref Tan et al. [2017]; cited from earlier work
# [10] = system: urease of ruminal microbial crude protein; assay: Urease activity of ruminal microbial crude protein (phenol/hypochlorite); format: biochemical, rumen microorganisms; settings: Fig. 5A
# Experimental: Ruminal microbial crude protein was collected by ultrasonication and centrifugation following a previously established method (Zhang et al. [2020b]). The urease activity of ruminal microbial crude protein was determined based on the amount of ammonia decomposed by urea through a modified phenol/hypochlorite reaction method (Krallmann-Wenzel [1985]), in which the urease activity without alkaloid and urea was set at 0, and the urease activity without alkaloid was set at 100%. The inhibition rate of alkaloid to inhibit urease activity was calculated by the following formula: Inhibitionrate%=1-A-B/C-D×100 where A represents the absorbance value of urease activity with alkaloid, B represents the absorbance value of urease activity with alkaloid but without urea, C represents the absorbance value of urease activity without alkaloid, and D represents the absorbance value of urease activity without alkaloid and urea. Each measurement was performed in triplicate.
# [11] = cited from earlier work
# [12] = system: rumen microbial urease (rumen fluid); assay: Ruminal microbial fermentation in vitro (NH3 and urea); format: cell-based, rumen microorganisms; settings: 15 mM urea; for Decrease in NH3 concentration: 12 h of incubation
# Experimental: The study of ruminal microbial fermentation consisted of a control group and 3 epiberberine treatment groups, each containing 70 mL fresh rumen fluid and 140 mL anaerobic medium (Zhang et al. [2020c]). Epiberberine treatment groups with the final concentration of 2, 20, and 200 μM were pre-incubated in an anaerobic chamber at 39 °C for 15 min. Immediately after inoculation, 10 mL aliquots of mixed solution were transferred into Hungate tubes, urea with a final concentration of 15 mM was added into each tube. Three tubes were immediately collected from each group as 0 h samples; the others were sealed with rubber stoppers and cultured in an incubator. Samples were collected at 1, 2, 4, 8, and 12 h of incubation, with 3 tubes in each group. The collected tubes were immediately placed on ice to slow down fermentation; 400 μL of sample solution was mixed with 800 μL metaphosphoric acid solution (25% w/v) and centrifuged at 12,000 × g for 5 min. The supernatant was collected for the detection of NH3 and urea. NH3 content was measured by a modified phenol/hypochlorite reaction method. Urea concentration was determined using the diacetyl monoxime method kit following the manufacturer’s instructions (Jiancheng Bioengineering, Nanjing, China).
# [13] = system: urease of Helicobacter pylori; set-up: method as in Li et al. [2016]; settings: ref Li et al. [2016]; cited from earlier work
# (UniProt A0A6M3RDS9), sequence (A0A6M3RDS9 1-203): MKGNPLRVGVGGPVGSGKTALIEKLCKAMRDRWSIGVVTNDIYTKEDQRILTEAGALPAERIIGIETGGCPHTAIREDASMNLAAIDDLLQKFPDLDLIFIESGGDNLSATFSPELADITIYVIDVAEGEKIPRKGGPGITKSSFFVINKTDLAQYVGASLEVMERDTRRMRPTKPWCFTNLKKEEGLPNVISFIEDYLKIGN
compound,measurement,setting,value
COc1cc2c(cc1OC)-c1cc3ccc(OC)c(OC)c3c[n+]1CC2 [palmatine],Median lethal dose,[1],1533.7 mg/kg
c1c2c(cc3c1OCO3)-c1cc3ccc4c(c3c[n+]1CC2)OCO4 [coptisine],Inhibitory effect on Helicobacter pylori among the 5 major protoberberine alkaloids,[2],strongest inhibitory effect
COc1ccc2cc3[n+](cc2c1OC)CCc1cc2c(cc1-3)OCO2 [berberine chloride],Secondary structural content changes of UreG,[3],slight changes
same,IC50,[4],43.2 µM
same,Type of inhibition of UreG,[5],mixed-type inhibitor
same,Effect on KD value between nickel and UreG,[6],slightly altered
same,Effect on N value (nickel: UreG),[6],slightly altered
COc1cc2c(cc1OC)-c1cc3ccc(OC)c(OC)c3c[n+]1CC2 [Palmatine chloride],IC50,[4],94.8 µM
c1c2c(cc3c1OCO3)-c1cc3ccc4c(c3c[n+]1CC2)OCO4 [Coptisine chloride],IC50,[7],86.6 µM
same,Inhibition rate of UreG GTPase activity relative to coptisine,[7]; ratio of inhibition rates,2.5 times
COc1cc2c(cc1O)CC[n+]1cc3c(OC)c(OC)ccc3cc1-2 [Jatrorrizine chloride],IC50,[7],60.1 µM
COc1cc2c(cc1OC)-c1cc3ccc4c(c3c[n+]1CC2)OCO4 [epiberberine],"Detection in urine, feces and bile",[8],not detected
same,Decrease in the α-helix content of UreG,[3],~ 56%
same,Increasement in the β-sheet content of UreG,[3],~ 105%
same,IC50,[4],56.9 µM
same,Inhibitory potential against urease based on IC50 (rank among 5 alkaloids),[9],lowest IC50 value
same,Median lethal dose,[1],1360.0 mg/kg
same,Inhibition rate of urease activity against ruminal microbial crude protein,[10],significantly higher than that of berberine chloride and AHA
same,Oral bioavailability,"[11]; rat, in vivo, po",14.5%
same,Type of inhibition of UreG,[5],uncompetitive inhibition type
same,Effect on KD value between nickel and UreG,[6],increased
same,Effect on N value (nickel: UreG),[6],decreased
same,Weaker binding of nickel and UreG compared to that of berberine chloride,[6]; 238 μM alkaloid,10.8 fold
same,Urea remaining during fermentation,"[12]; 2 μM, after 8 h of incubation",completely decomposed
same,Decrease in NH3 concentration,[12]; 20 μM,13.1%
same,Decrease in NH3 concentration,[12]; 200 μM,15.6%
COc1ccc2cc3[n+](cc2c1OC)CCc1cc2c(cc1-3)OCO2 [berberine],Inhibitory potential against urease based on IC50 (rank among 5 alkaloids),[9],weakest one among the 5 alkaloids
same,Inhibitory activity against urease of Helicobacter pylori,[13],little inhibitory activity
same,Oral bioavailability,"[11]; rats, ref Chen et al. [2017]",< 1%
"CC(=O)NO [AHA, acetohydroxamic acid, reference compound]",Inhibition rate of UreG GTPase activity,[7]; Fig. 1A screening,little effect
same,Inhibition rate of urease activity against ruminal microbial crude protein,[10],40%

# Reference: PMC11001712, “Epiberberine: a potential rumen microbial urease inhibitor to reduce ammonia release screened by targeting UreG” (Applied Microbiology and Biotechnology, 2024)
